These compounds were tested against HER2YVMA (Homo sapiens, UniProt P04626, INS775YVMA) (assay: HER2 signaling (pHER2) in Hek293-HER2YVMA cells). Details: 1.5 hr compound, 1% FBS, read-out: HEKYVMA pHER2 EC50.
Format: cell-based
Design: expressed in transfected cells; host or cells: HEK293 (pool), Ba/F3 (clones), BEAS2B (clones); lentiviral vector pCDH-CMV-MCS-EF1-Neo
Procedure, shortened: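 Lentivirally transduced HER2YVMA lines (HEK293 pool; BEAS2B clone) treated 1.5 h at 37 °C in 1% FBS medium with compound at 0.0005–1.1 μM. Lysates read by MSD immunoassay for pHER2 (Tyr1248) normalized to total HER2, as % DMSO control; EC50 from variable-slope sigmoidal fit.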

HER2YVMA, sequence (P04626 with tags, fused parts or gaps INS775YVMA): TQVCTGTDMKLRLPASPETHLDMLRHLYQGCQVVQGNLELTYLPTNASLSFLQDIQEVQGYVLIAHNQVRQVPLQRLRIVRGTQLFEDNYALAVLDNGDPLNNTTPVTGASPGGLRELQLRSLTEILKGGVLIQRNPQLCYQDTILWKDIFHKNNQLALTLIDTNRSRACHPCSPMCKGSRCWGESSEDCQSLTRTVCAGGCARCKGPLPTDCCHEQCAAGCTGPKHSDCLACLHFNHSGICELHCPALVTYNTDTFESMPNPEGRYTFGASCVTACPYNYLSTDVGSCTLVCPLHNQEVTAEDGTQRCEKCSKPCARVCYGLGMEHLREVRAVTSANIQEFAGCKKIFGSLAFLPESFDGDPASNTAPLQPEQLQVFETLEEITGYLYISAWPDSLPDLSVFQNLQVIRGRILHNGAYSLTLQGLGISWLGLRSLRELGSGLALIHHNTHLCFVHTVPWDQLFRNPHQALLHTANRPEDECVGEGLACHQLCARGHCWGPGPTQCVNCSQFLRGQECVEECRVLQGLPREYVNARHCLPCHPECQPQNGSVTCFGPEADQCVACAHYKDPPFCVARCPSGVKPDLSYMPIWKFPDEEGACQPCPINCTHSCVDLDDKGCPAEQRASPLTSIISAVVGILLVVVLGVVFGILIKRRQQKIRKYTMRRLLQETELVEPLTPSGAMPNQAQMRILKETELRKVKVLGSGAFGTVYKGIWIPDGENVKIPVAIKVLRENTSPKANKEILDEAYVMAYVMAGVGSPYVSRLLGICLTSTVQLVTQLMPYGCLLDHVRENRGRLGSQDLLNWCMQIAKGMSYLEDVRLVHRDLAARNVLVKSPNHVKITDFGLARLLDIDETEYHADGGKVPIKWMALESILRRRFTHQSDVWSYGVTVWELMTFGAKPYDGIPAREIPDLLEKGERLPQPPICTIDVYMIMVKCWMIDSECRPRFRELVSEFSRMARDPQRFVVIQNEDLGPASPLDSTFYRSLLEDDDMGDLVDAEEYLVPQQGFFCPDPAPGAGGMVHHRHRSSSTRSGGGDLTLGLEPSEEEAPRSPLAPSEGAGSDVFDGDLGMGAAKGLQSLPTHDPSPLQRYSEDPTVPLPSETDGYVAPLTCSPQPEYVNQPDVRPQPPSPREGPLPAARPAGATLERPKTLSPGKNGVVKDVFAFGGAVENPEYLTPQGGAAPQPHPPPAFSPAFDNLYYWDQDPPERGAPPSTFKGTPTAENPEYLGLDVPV

| EC50 [nM] | Structure (SMILES) |
| --- | --- |
| < 100 | Cc1ccc(Oc2ccc(Nc3ncnc4sc5c(c34)C(C)CN(C(=O)C=CCN(C)C)C5)cc2C)cn1 (single isomer, unassigned) [Compound 105] |
| < 100 | Cc1ccc(Oc2ccc(Nc3ncnc4sc5c(c34)C(C)CN(C(=O)C=CCN(C)C)C5)cc2C)cn1 (single isomer, unassigned) [Compound 106] |
| 100 to 350 | Cc1cc(Nc2ncnc3sc4c(c23)CCN(C(=O)/C=C/CN(C)C)C4)ccc1Oc1ccc2ncnn2c1 [Compound 3, (E)-1-(4-((4-([1,2,4]triazolo[1,5-a]pyridin-6-yloxy)-3-methylphenyl)amino)-5,8-dihydropyrido[4′,3′:4,5]thieno[2,3-d]pyrimidin-7(6H)-yl)-4-(dimethylamino)but-2-en-1-one] |
| < 100 | C=CC(=O)N1CCc2c(sc3ncnc(Nc4ccc(Oc5ccc6ncnn6c5)c(Cl)c4)c23)C1 [Compound 4, 1-(4-((4-([1,2,4]triazolo[1,5-a]pyridin-6-yloxy)-3-chlorophenyl)amino)-5,8-dihydropyrido[4′,3′:4,5]thieno[2,3-d]pyrimidin-7(6H)-yl)prop-2-en-1-one] |
| < 100 | CN(C)C/C=C/C(=O)N1CCc2c(sc3ncnc(Nc4ccc(Oc5ccc6ncnn6c5)c(Cl)c4)c23)C1 [Compound 5, (E)-1-(4-((4-([1,2,4]triazolo[1,5-a]pyridin-6-yloxy)-3-chlorophenyl)amino)-5,8-dihydropyrido[4′,3′:4,5]thieno[2,3-d]pyrimidin-7(6H)-yl)-4-(dimethylamino)but-2-en-1-one] |
| < 100 | Cc1cc(Nc2ncnc3sc4c(c23)CCN(C(=O)/C=C/CN2CC3CCC(C3)C2)C4)ccc1Oc1ccc2ncnn2c1 [Compound 20] |
| < 100 | Cc1ncc(Oc2ccc(Nc3ncnc4sc5c(c34)CCN(C(=O)/C=C/CN(C)C)C5)cc2C)cn1 [Compound 21, (E)-4-(dimethylamino)-1-(4-((3-methyl-4-((2-methylpyrimidin-5-yl)oxy)phenyl)amino)-5,8-dihydropyrido[4′,3′:4,5]thieno[2,3-d]pyrimidin-7(6H)-yl)but-2-en-1-one] |
| < 100 | Cc1cc(Nc2ncnc3sc4c(c23)CCN(C(=O)/C=C/CN(C)C)C4)ccc1Oc1ccc2[nH]ncc2c1 [Compound 22, (E)-1-(4-((4-((1H-indazol-5-yl)oxy)-3-methylphenyl)amino)-5,8-dihydropyrido[4′,3′:4,5]thieno[2,3-d]pyrimidin-7(6H)-yl)-4-(dimethylamino)but-2-en-1-one] |
| < 100 | Cc1cc(Nc2ncnc3sc4c(c23)CCN(C(=O)/C=C/CN(C)C)C4)ccc1Oc1ccc2cn[nH]c2c1 [Compound 23, (E)-1-(4-((4-((1H-indazol-6-yl)oxy)-3-methylphenyl)amino)-5,8-dihydropyrido[4′,3′:4,5]thieno[2,3-d]pyrimidin-7(6H)-yl)-4-(dimethylamino)but-2-en-1-one] |
| < 100 | Cc1ccc(Oc2ccc(Nc3ncnc4sc5c(c34)CCN(C(=O)/C=C/CN3CC4CC3CO4)C5)cc2C)cn1 (stereo not shown) [Compound 26] |
| < 100 | Cc1ccc(Oc2ccc(Nc3ncnc4sc5c(c34)CCN(C(=O)/C=C/CN(C)C(C)(C)C)C5)cc2C)cn1 [Compound 33] |
| < 100 | Cc1ccc(Oc2ccc(Nc3ncnc4sc5c(c34)CCN(C(=O)/C=C/CN3CC4C(CO)C4C3)C5)cc2C)cn1 (stereo not shown) [Compound 34] |
| 100 to 350 | Cc1ccc(Oc2ccc(Nc3ncnc4sc5c(c34)CCN(C(=O)/C=C/CN(CCO)CCO)C5)cc2C)cn1 [Compound 37] |
| < 100 | Cc1ccc(Oc2ccc(Nc3ncnc4sc5c(c34)CCN(C(=O)/C=C/CNC3COC3)C5)cc2C)cn1 [Compound 38] |
| 100 to 350 | CNC(=O)CNC/C=C/C(=O)N1CCc2c(sc3ncnc(Nc4ccc(Oc5ccc(C)nc5)c(C)c4)c23)C1 [Compound 39] |
| < 100 | Cc1ccc(Oc2ccc(Nc3ncnc4sc5c(c34)CCN(C(=O)/C=C/CNC3CC3)C5)cc2C)cn1 [Compound 40] |
| < 100 | Cc1ccc(Oc2ccc(Nc3ncnc4sc5c(c34)CCN(C(=O)/C=C/CN3CCCC3C(N)=O)C5)cc2C)cn1 (stereo not shown) [Compound 41] |
| < 100 | Cc1ccc(Oc2ccc(Nc3ncnc4sc5c(c34)CCN(C(=O)/C=C/CN3CCCOCC3)C5)cc2C)cn1 [Compound 42] |
| 350 to 1000 | Cc1ccc(Oc2ccc(Nc3ncnc4sc5c(c34)CCN(C(=O)/C=C/CN3CC(O)CO3)C5)cc2C)cn1 (stereo not shown) [Compound 43] |
| < 100 | Cc1ccc(Oc2ccc(Nc3ncnc4sc5c(c34)CCN(C(=O)/C=C/CNCCS(C)(=O)=O)C5)cc2C)cn1 [Compound 45] |
| < 100 | CCN1CCN(C/C=C/C(=O)N2CCc3c(sc4ncnc(Nc5ccc(Oc6ccc(C)nc6)c(C)c5)c34)C2)CC1 [Compound 46] |
| < 100 | Cc1ccc(Oc2ccc(Nc3ncnc4sc5c(c34)CCN(C(=O)/C=C/CNC3CCOC3)C5)cc2C)cn1 (stereo not shown) [Compound 47] |
| < 100 | Cc1ccc(Oc2ccc(Nc3ncnc4sc5c(c34)CCN(C(=O)/C=C/CNCC3CN(C)CCO3)C5)cc2C)cn1 (stereo not shown) [Compound 48] |
| < 100 | Cc1ccc(Oc2ccc(Nc3ncnc4sc5c(c34)CCN(C(=O)/C=C/CNCc3cc(C)n[nH]3)C5)cc2C)cn1 [Compound 49] |
| 100 to 350 | CC(=O)N1CCN(C/C=C/C(=O)N2CCc3c(sc4ncnc(Nc5ccc(Oc6ccc(C)nc6)c(C)c5)c34)C2)CC1 [Compound 51] |
| < 100 | Cc1ccc(Oc2ccc(Nc3ncnc4sc5c(c34)CCN(C(=O)/C=C/CNCc3ccsc3)C5)cc2C)cn1 [Compound 52] |

| EC50 [nM] | Structure (SMILES) |
| --- | --- |
| 100 to 350 | Cc1ccc(Oc2ccc(Nc3ncnc4sc5c(c34)CCN(C(=O)/C=C/CN3CC(O)C3)C5)cc2C)cn1 [Compound 53] |
| < 100 | Cc1ccc(Oc2ccc(Nc3ncnc4sc5c(c34)CCN(C(=O)/C=C/CNC3CCC3)C5)cc2C)cn1 [Compound 54] |
| < 100 | Cc1ccc(Oc2ccc(Nc3ncnc4sc5c(c34)CCN(C(=O)/C=C/CN3CC=CCC3)C5)cc2C)cn1 [Compound 55] |
| 350 to 1000 | CON(C)C/C=C/C(=O)N1CCc2c(sc3ncnc(Nc4ccc(Oc5ccc(C)nc5)c(C)c4)c23)C1 [Compound 56] |
| < 100 | Cc1ccc(Oc2ccc(Nc3ncnc4sc5c(c34)CCN(C(=O)/C=C/CN3CC4(C3)CS(=O)(=O)C4)C5)cc2C)cn1 [Compound 57] |
| 350 to 1000 | Cc1ccc(Oc2ccc(Nc3ncnc4sc5c(c34)CCN(C(=O)/C=C/CN3CCN4C(=O)CCC4C3)C5)cc2C)cn1 (stereo not shown) [Compound 58] |
| < 100 | COCCN1CCN(C/C=C/C(=O)N2CCc3c(sc4ncnc(Nc5ccc(Oc6ccc(C)nc6)c(C)c5)c34)C2)CC1 [Compound 59] |
| 350 to 1000 | Cc1ccc(Oc2ccc(Nc3ncnc4sc5c(c34)CCN(C(=O)/C=C/CN3CCn4cc(C(F)(F)F)nc4C3)C5)cc2C)cn1 [Compound 61] |
| 100 to 350 | Cc1ccc(Oc2ccc(Nc3ncnc4sc5c(c34)CCN(C(=O)/C=C/CN3CCC(n4ccnc4)CC3)C5)cc2C)cn1 [Compound 62] |
| < 100 | Cc1cc(Nc2ncnc3sc4c(c23)CCN(C(=O)/C=C/CN(C)C)C4)ccc1Oc1cccc(B(O)O)c1 [Compound 64, (E)-(3-(4-((7-(4-(dimethylamino)but-2-enoyl)-5,6,7,8-tetrahydropyrido[4′,3′:4,5]thieno[2,3-d]pyrimidin-4-yl)amino)-2-methylphenoxy)phenyl)boronic acid] |
| < 100 | Cc1ccc(Oc2ccc(Nc3ncnc4sc5c(c34)CCN(C(=O)/C=C/CNCCO)C5)cc2C)cn1 [Compound 65] |
| < 100 | Cc1ccc(Oc2ccc(Nc3ncnc4sc5c(c34)CCN(C(=O)/C=C/CN3C[C@H]4CC[C@@H](C3)O4)C5)cc2C)cn1 [Compound 66] |
| < 100 | Cc1ccc(Oc2ccc(Nc3ncnc4sc5c(c34)CCN(C(=O)/C=C/CN3CCC4(CCOC4)C3)C5)cc2C)cn1 (stereo not shown) [Compound 67] |
| < 100 | Cc1ccc(Oc2ccc(Nc3ncnc4sc5c(c34)CCN(C(=O)/C=C/CN[C@H]3CC[C@H](OC4CC4)CC3)C5)cc2C)cn1 [Compound 68] |
| < 100 | Cc1ccc(Oc2ccc(Nc3ncnc4sc5c(c34)CCN(C(=O)/C=C/CN[C@H]3CC[C@H](OC(F)F)CC3)C5)cc2C)cn1 [Compound 69] |
| < 100 | Cc1ccc(Oc2ccc(Nc3ncnc4sc5c(c34)CCN(C(=O)/C=C/CN[C@H]3CC[C@H](OCC(F)(F)F)CC3)C5)cc2C)cn1 [Compound 70] |
| < 100 | Cc1ccc(Oc2ccc(Nc3ncnc4sc5c(c34)CCN(C(=O)/C=C/CNC3CCC(C(=O)N(C)C)CC3)C5)cc2C)cn1 (stereo not shown) [Compound 71] |
| < 100 | Cc1ccc(Oc2ccc(Nc3ncnc4sc5c(c34)CCN(C(=O)/C=C/CNC34CCC(C#N)(CC3)CC4)C5)cc2C)cn1 [Compound 72] |
| < 100 | Cc1ccc(Oc2ccc(Nc3ncnc4sc5c(c34)CCN(C(=O)/C=C/CN[C@H]3CCC[C@H](O)C3)C5)cc2C)cn1 [Compound 73] |
| < 100 | Cc1ccc(Oc2ccc(Nc3ncnc4sc5c(c34)CCN(C(=O)/C=C/CN3CCC(O)C3)C5)cc2C)cn1 (stereo not shown) [Compound 74] |
| < 100 | Cc1ccc(Oc2ccc(Nc3ncnc4sc5c(c34)CCN(C(=O)/C=C/CN[C@@H](C)CO)C5)cc2C)cn1 [Compound 75] |
| < 100 | Cc1ccc(Oc2ccc(Nc3ncnc4sc5c(c34)CCN(C(=O)/C=C/CN3CC4CC4C3)C5)cc2C)cn1 (stereo not shown) [Compound 76] |
| 100 to 350 | Cc1cc(Nc2ncnc3sc4c(c23)CCN(C(=O)/C=C/CN2CC3CC2CO3)C4)ccc1Oc1ccc2ncnn2c1 (stereo not shown) [Compound 77] |
| < 100 | Cc1cc(Nc2ncnc3sc4c(c23)CCN(C(=O)/C=C/CN(C)C(C)(C)C)C4)ccc1Oc1ccc2ncnn2c1 [Compound 80] |
| < 100 | Cc1cc(Nc2ncnc3sc4c(c23)CCN(C(=O)/C=C/CN2CC3C(CO)C3C2)C4)ccc1Oc1ccc2ncnn2c1 (stereo not shown) [Compound 81] |

| Structure (SMILES) | EC50 [nM] |
| --- | --- |
| Cc1ccc(Oc2ccc(Nc3ncnc4sc5c(c34)CCN(C(=O)/C=C/CN3C4CCC3CC4)C5)cc2C)cn1 [Compound 44] | < 100 |
